US20130178475A1, “sGC STIMULATORS” (IRONWOOD PHARMACEUTICALS, INC., priority 2010, published 2013)

Target: T1, soluble guanylate cyclase (sGC) (Homo sapiens, UniProt Q02108+Q02153)
T1 construct: endogenously expressing soluble guanylate cyclase (sGC); endogenous in cells; host or cells: HEK293
T1 sequence (Q02153 1-619): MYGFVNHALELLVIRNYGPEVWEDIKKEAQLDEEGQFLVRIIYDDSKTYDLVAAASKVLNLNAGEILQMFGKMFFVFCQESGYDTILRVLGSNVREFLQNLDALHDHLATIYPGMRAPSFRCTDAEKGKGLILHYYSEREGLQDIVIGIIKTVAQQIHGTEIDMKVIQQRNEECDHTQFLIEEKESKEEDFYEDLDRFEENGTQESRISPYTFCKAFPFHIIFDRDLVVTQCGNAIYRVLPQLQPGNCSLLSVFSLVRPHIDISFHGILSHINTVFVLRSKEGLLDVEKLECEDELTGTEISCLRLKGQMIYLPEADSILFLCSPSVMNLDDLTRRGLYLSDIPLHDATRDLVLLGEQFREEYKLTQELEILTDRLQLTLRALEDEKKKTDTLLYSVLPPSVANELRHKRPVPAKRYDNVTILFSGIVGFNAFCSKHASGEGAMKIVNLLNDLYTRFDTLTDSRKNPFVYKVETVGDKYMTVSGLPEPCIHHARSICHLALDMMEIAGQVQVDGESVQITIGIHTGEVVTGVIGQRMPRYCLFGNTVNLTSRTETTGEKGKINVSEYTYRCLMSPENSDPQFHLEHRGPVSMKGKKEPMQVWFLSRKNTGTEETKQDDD
T1 sequence (Q02108 1-690): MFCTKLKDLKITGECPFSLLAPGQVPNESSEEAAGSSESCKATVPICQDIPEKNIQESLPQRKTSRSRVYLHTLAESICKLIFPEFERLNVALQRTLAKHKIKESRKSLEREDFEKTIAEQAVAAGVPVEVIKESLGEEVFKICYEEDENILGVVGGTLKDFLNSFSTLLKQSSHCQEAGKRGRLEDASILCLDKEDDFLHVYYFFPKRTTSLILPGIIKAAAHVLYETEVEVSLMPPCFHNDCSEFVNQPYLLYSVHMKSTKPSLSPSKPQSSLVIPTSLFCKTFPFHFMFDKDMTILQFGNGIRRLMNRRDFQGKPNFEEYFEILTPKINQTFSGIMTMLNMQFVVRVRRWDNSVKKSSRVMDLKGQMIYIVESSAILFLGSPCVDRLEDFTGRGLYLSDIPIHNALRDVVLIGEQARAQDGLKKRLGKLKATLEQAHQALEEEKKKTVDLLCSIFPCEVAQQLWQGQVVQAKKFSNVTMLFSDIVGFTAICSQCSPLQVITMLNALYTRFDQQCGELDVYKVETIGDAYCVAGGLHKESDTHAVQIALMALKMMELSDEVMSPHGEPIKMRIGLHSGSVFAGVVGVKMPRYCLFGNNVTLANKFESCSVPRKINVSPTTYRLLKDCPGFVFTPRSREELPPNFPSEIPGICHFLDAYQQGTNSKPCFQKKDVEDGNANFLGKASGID
Assay: sGC-HEK-cGMP assay
Assay type: cell-based
Conditions: HEK293 cells, 10 min incubation, intracellular cGMP by LC/MS; for Increase in cGMP Concentration Tested at 10 μM in HEK Assay: test compound 10 μM; for Increase in cGMP Concentration Tested at 30 μM in HEK Assay: test compound 30 μM
Experimental: Human embryonic kidney cells (HEK293), endogenously expressing soluble guanylate cyclase (sGC), were used to evaluate the activity of test compounds. Compounds stimulating the sGC receptor should cause an increase in the intracellular concentration of cGMP. […] Cells were then incubated for 15 minutes at 37° C. with 0.5 mM 3-isobutyl-1-methylxanthine (2004). Test article was then added to the assay mixture (2 μL) and incubated at 37° C. for 10 minutes. After the 10 minute incubation, the assay mixture was aspirated and 0.1M HCl (2004) was added to the cells. The plate was incubated at 4° C. for 30 minutes in the 0.1M HCl to stop the reaction and lyse the cells. The plates were then centrifuged at 1,200 g for 5 minutes at room temperature. Supernatants were collected and transferred to a new flat bottom 96 well plate for analysis. Vehicle controls were carried out using DMSO (1%). A known sGC stimulator, BAY 41-2272, was used as the positive control.
Samples were diluted with an equal volume of 1 M Ammonium Acetate (pH 7) to neutralize samples for better chromatography. A 2×cGMP standard curve was prepared in 0.1 M HCl and then diluted with an equal volume of 1 M Ammonium Acetate, with the following final concentrations in nM: 1024, 512, 256, 128, 64, 32, 16, 8, 4, 2, 1.
cGMP concentrations were determined from each sample using the LC/MS conditions (Table 2 below) and calculated standard curve. EC50 values were calculated from concentration-response curves generated with GraphPad Prism Software.

SMILES | Increase in cGMP Concentration Tested at 10 μM in HEK Assay | Increase in cGMP Concentration Tested at 30 μM in HEK Assay
COC(=O)N(Cc1ccccc1F)c1c(N)nc(-c2nn(Cc3ccccc3F)c3c2CCCC3)nc1NCc1ccccc1F [Compound I-24] | A (A represents no increase or an increase ranging from more than 0 fold to less than 5 fold) | A (A represents no increase or an increase ranging from more than 0 fold to less than 5 fold)
c1cnc(-c2nn(Cc3cccc4ccsc34)c3c2CCCC3)nc1 [Compound I-10] | B (B represents an increase ranging from 5 fold to less than 10 fold) | B (B represents an increase ranging from 5 fold to less than 10 fold)
COc1ccccc1C(=O)N1CCc2c(c(-c3ncccn3)nn2Cc2ccccc2F)C1 [Compound I-57] | B (B represents an increase ranging from 5 fold to less than 10 fold) | C (C represents an increase ranging from 10 fold to less than 20 fold)
CC1(C)C=Cc2c1c(-c1nccc(N)n1)nn2Cc1ccccc1F [Compound I-28] | B (B represents an increase ranging from 5 fold to less than 10 fold) | C (C represents an increase ranging from 10 fold to less than 20 fold)
Nc1nc(-c2nn(Cc3ccccc3F)c3c2CCC3)nc(N)c1N [Compound I-35] | A (A represents no increase or an increase ranging from more than 0 fold to less than 5 fold) | A (A represents no increase or an increase ranging from more than 0 fold to less than 5 fold)
Fc1ccccc1Cn1nc(-c2ncccn2)c2c1CCCCC2 [Compound I-18] | B (B represents an increase ranging from 5 fold to less than 10 fold) | C (C represents an increase ranging from 10 fold to less than 20 fold)
Nc1ccnc(-c2nn(Cc3ccccc3F)c3c2C2CCC3C2)n1 (centres unmarked) [Compound I-31] | A (A represents no increase or an increase ranging from more than 0 fold to less than 5 fold) | A (A represents no increase or an increase ranging from more than 0 fold to less than 5 fold)
COC(=O)Nc1c(N)nc(-c2nn(Cc3ccccc3F)c3c2CCC3)nc1N [Compound I-36] | C (C represents an increase ranging from 10 fold to less than 20 fold) | B (B represents an increase ranging from 5 fold to less than 10 fold)
COc1cccc(C(=O)N2CCc3c(c(-c4ncccn4)nn3Cc3ccccc3F)C2)c1 [Compound I-58] | A (A represents no increase or an increase ranging from more than 0 fold to less than 5 fold) | 
CC1(C)C=Cc2c(-c3ncccn3)nn(Cc3ccccc3F)c2C1 [Compound I-33] | A (A represents no increase or an increase ranging from more than 0 fold to less than 5 fold) | A (A represents no increase or an increase ranging from more than 0 fold to less than 5 fold)
Fc1ccccc1Cn1nc(-c2cncnc2)c2c1CCCC2 [Compound I-47, 1-(2-fluorobenzyl)-3-(pyrimidin-5-yl)-4,5,6,7-tetrahydro-1H-indazole] | A (A represents no increase or an increase ranging from more than 0 fold to less than 5 fold) | A (A represents no increase or an increase ranging from more than 0 fold to less than 5 fold)
Nc1nc(-c2nn(Cc3ccccc3F)c3c2CCCC3)nc(N)c1N [Compound I-12] | A (A represents no increase or an increase ranging from more than 0 fold to less than 5 fold) | A (A represents no increase or an increase ranging from more than 0 fold to less than 5 fold)
COC(=O)N(Cc1ccccc1F)c1c(N)nc(-c2nn(Cc3ccccc3F)c3c2CCCC3)nc1N [Compound I-23] | C (C represents an increase ranging from 10 fold to less than 20 fold) | C (C represents an increase ranging from 10 fold to less than 20 fold)
Fc1ccccc1Cn1nc(-c2cccnc2)c2c1CCCC2 [Compound I-48, 1-(2-fluorobenzyl)-3-(pyridin-3-yl)-4,5,6,7-tetrahydro-1H-indazole] | A (A represents no increase or an increase ranging from more than 0 fold to less than 5 fold) | A (A represents no increase or an increase ranging from more than 0 fold to less than 5 fold)
Fc1ccc(Cn2nc(-c3ncccn3)c3c2CCCC3)cc1 [Compound I-6] | A (A represents no increase or an increase ranging from more than 0 fold to less than 5 fold) | A (A represents no increase or an increase ranging from more than 0 fold to less than 5 fold)
Fc1ccccc1Cn1nc(-c2ncccn2)c2c1CCC2 [Compound I-2] | C (C represents an increase ranging from 10 fold to less than 20 fold) | D (D represents an increase ranging from 20 fold to less than 50 fold)
CC1(C)CC(=O)c2c(-c3ncccn3)nn(Cc3ccccc3F)c2C1 [Compound I-20] | A (A represents no increase or an increase ranging from more than 0 fold to less than 5 fold) | A (A represents no increase or an increase ranging from more than 0 fold to less than 5 fold)
COc1cccc(Cn2nc(-c3ncccn3)c3c2CCCC3)c1 [Compound I-5] | B (B represents an increase ranging from 5 fold to less than 10 fold) | C (C represents an increase ranging from 10 fold to less than 20 fold)
O=S1(=O)CCc2c(c(-c3ncccn3)nn2Cc2ccccc2F)C1 [Compound I-19] | A (A represents no increase or an increase ranging from more than 0 fold to less than 5 fold) | A (A represents no increase or an increase ranging from more than 0 fold to less than 5 fold)
CS(=O)(=O)N1CCc2c(c(-c3ncccn3)nn2Cc2ccccc2F)C1 [Compound I-51, 1-(2-fluorobenzyl)-5-(methylsulfonyl)-3-(pyrimidin-2-yl)-4,5,6,7-tetrahydro-1H-pyrazolo[4,3-c]pyridine] | A (A represents no increase or an increase ranging from more than 0 fold to less than 5 fold) | A (A represents no increase or an increase ranging from more than 0 fold to less than 5 fold)
Nc1nc(-c2nn(Cc3ccccc3F)c3c2CCCC3)ncc1-c1ccncc1 [Compound I-27] | A (A represents no increase or an increase ranging from more than 0 fold to less than 5 fold) | A (A represents no increase or an increase ranging from more than 0 fold to less than 5 fold)
